From ChEMBL document CHEMBL1124142, “N6-[2-(3,5-dimethoxyphenyl)-2-(2-methylphenyl)ethyl]adenosine and its uronamide derivatives. Novel adenosine agonists with both high affinity and high selectivity for the adenosine A2 receptor” (J Med Chem, 1988)

What was measured:
Adenosine A2 receptor [1] = target: T1, Adenosine A2 receptor (Rattus norvegicus, UniProt P29276+P30543)
Adenosine receptor A1 = target: T2, Adenosine receptor A1 (Rattus norvegicus, UniProt P25099); assay: biochemical
T2 sequence (P25099 whole entry): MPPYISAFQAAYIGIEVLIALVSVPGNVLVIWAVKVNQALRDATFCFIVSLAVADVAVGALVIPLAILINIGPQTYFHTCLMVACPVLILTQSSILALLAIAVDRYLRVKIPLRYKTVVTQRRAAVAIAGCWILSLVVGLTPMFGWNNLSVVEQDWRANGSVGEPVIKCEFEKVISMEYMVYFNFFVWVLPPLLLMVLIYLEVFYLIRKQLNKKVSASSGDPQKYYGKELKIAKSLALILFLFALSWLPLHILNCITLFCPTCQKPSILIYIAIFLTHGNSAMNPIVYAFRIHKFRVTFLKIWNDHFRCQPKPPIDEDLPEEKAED
Description: Binding affinity at adenosine A1 receptor from rat brain membranes by [3H]N6-cyclohexyladenosine displacement.

Adenosine A2 receptor [2] = target: T1, Adenosine A2 receptor; assay: Binding affinity at adenosine A2 receptor from rat striatal membranes by [3H]NECA displacement.

Structure (SMILES) | Ki (Adenosine A2 receptor [1]) [µM] | Ki (Adenosine receptor A1) [µM] | Ki (Adenosine A2 receptor [2]) [µM]
Nc1nc(Nc2ccccc2)nc2c1ncn2[C@@H]1O[C@H](CO)[C@@H](O)[C@H]1O | 0.116 |  | 
OC[C@H]1O[C@@H](n2cnc3c(NCc4cccc5ccccc45)ncnc32)[C@H](O)[C@@H]1O | 0.0094 |  | 
OC[C@H]1OC(n2cnc3c(NCC(c4cccc(Cl)c4)c4cccc(Cl)c4)ncnc32)[C@H](O)[C@@H]1O (some centres not stated) | 0.006 | 0.0026 | 
OC[C@H]1OC(n2cnc3c(NCC(c4ccccc4)c4c(Cl)cccc4Cl)ncnc32)[C@H](O)[C@@H]1O (some centres not stated) | 0.019 | 0.061 | 
COc1cc(OC)cc(C(CNc2ncnc3c2ncn3C2O[C@H](C(=O)NC3CC3)[C@@H](O)[C@H]2O)c2ccccc2C)c1 (some centres not stated) |  | 0.232 | 0.0087
OC[C@H]1OC(n2cnc3c(NCC(c4ccccc4)c4cc(Cl)cc(Cl)c4)ncnc32)[C@H](O)[C@@H]1O (some centres not stated) |  | 0.0184 | 
Cc1cccc(C)c1C(CNc1ncnc2c1ncn2C1O[C@H](CO)[C@@H](O)[C@H]1O)c1ccccc1 (some centres not stated) | 0.062 | 0.229 | 
Cc1cccc(C(CNc2ncnc3c2ncn3C2O[C@H](CO)[C@@H](O)[C@H]2O)c2cccc(C)c2)c1 (some centres not stated) | 0.0188 | 0.0093 | 
CCNC(=O)[C@H]1OC(n2cnc3c(NCC(c4cc(OC)cc(OC)c4)c4ccccc4C)ncnc32)[C@H](O)[C@@H]1O (some centres not stated) |  | 0.207 | 0.0056
CNC(=O)[C@H]1OC(n2cnc3c(NCC(c4cc(OC)cc(OC)c4)c4ccccc4C)ncnc32)[C@H](O)[C@@H]1O (some centres not stated) |  | 1.01 | 0.043
COc1cc(OC)cc(C(CNc2ncnc3c2ncn3C2O[C@H](CO)[C@@H](O)[C@H]2O)c2c(C)cccc2C)c1 (some centres not stated) | 0.0195 | 0.14 | 
COc1cc(OC)cc(C(CNc2ncnc3c2ncn3C2O[C@H](CO)[C@@H](O)[C@H]2O)c2ccccc2)c1 (some centres not stated) | 0.0061 | 0.0302 | 
COc1cc(OC)cc(C(CNc2ncnc3c2ncn3[C@@H]2O[C@H](CO)[C@@H](O)[C@H]2O)c2ccccc2C)c1 (single isomer, unassigned) | 0.0031 | 0.118 | 
COc1cc(OC)cc(C(CNc2ncnc3c2ncn3[C@@H]2O[C@H](CO)[C@@H](O)[C@H]2O)c2ccccc2C)c1 (single isomer, unassigned; (+)) | 0.0062 | 0.188 | 
COc1cc(OC)cc(C(CNc2ncnc3c2ncn3[C@@H]2O[C@H](CO)[C@@H](O)[C@H]2O)c2ccccc2C)c1 (stereo in doubt; 16) | 0.0044 | 0.142 | 
